This is an account of results in US20230114728A1 (Venatorx Pharmaceuticals, Inc., priority 2019, published 2023).

Assay [1] addresses T1, P. aeruginosa PBP3 (Pseudomonas aeruginosa, UniProt G3XD46).
T1 construct: made in house
In words: Bocillin-FL fluorescence polarization competition binding assay, P. aeruginosa PBP3. To be noted: fluorescence polarization competition binding assay using Bocillin-FL. In a few lines: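 Inhibitor competition with Bocillin-FL for P. aeruginosa PBP3 was followed by fluorescence polarization on a Cytation3 (BioTek) reader, using g-factor 0.96, 490 nm excitation and 520 nm emission. The enzyme was at 0.75 μM and the probe at 0.1 μM in Hepes/NaCl/glycerol buffer, 80 μl per well. FP was recorded immediately after probe addition for up to 60 minutes. Potency was expressed as EC50, the concentration that reduces bound probe by 50%.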
A general note: Polarisation of emitted light reports the rotation of a fluorescent probe.

The subject of assay [2] is P. aeruginosa ATCC 27853. In words: Broth microdilution MIC in CAMHB. The format is cell-based. To be noted: Pseudomonas aeruginosa. In a few lines: (§1)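 Lowest compound concentration with no visible growth after 16-20 h at 37 °C defines MIC. Plates of 2-fold serial dilutions in cation-adjusted Mueller Hinton broth received 2-8×10^5 CFU/mL of exponentially grown cells, per CLSI methods; panel spans reference, hyper-permeable and efflux-pump-deleted strains.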

Assay [3] has as its system A. baumannii ATCC 19606. The experiment in a line: Broth microdilution MIC in CAMHB. It is filed as cell-based. The conditions noted are these: Acinetobacter baumannii. The method in brief: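 Colonies from cation-adjusted Mueller Hinton agar are grown in broth (3-5 h, 37° C), adjusted by OD600, and added at 2-8×10^5 CFU/mL to 2-fold compound dilutions. After 16-20 h at 37° C, the lowest concentration without growth is taken as MIC.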

The subject of assay [4] is K. pneumoniae 848844 producing SHV-11 and KPC-2. The experiment in a line: Broth microdilution MIC in CAMHB. It is filed as cell-based. To be noted: Klebsiella pneumoniae, read-out: Minimum Inhibitory Concentration, K. pneumoniae 848844. In a few lines:
as §1
A general note: Broth dilution looks for growth in wells or tubes with falling amounts of substance.

Assay [5] relates to E. coli AG100. In words: Broth microdilution MIC in CAMHB. It is filed as cell-based. The conditions noted are these: Escherichia coli. The method in brief:
as §1

In assay [6] the test system is P. aeruginosa (ΔmexAB-oprM). In words: Broth microdilution MIC in CAMHB. The format is cell-based. To be noted: Pseudomonas aeruginosa, read-out: Minimum Inhibitory Concentration, P. aeruginosa ΔmexAB-OprM. In a few lines:
as §1

Assay [7] has as its system K. pneumoniae UMM producing SHV-5 and KPC-2. The experiment in a line: Broth microdilution MIC in CAMHB. It is filed as cell-based. To be noted: Klebsiella pneumoniae, read-out: Minimum Inhibitory Concentration, K. pneumoniae UMM. The method in brief:
as §1

Assay [8] has as its system E. coli AG100A. In words: Broth microdilution MIC in CAMHB. The format is cell-based. To be noted: Escherichia coli, read-out: Minimum Inhibitory Concentration, E. coli AG100A. In a few lines:
as §1

In assay [9] the test system is E. coli 901C. The experiment in a line: Broth microdilution MIC in CAMHB. To be noted: Escherichia coli, read-out: Minimum Inhibitory Concentration, E. coli 901C. It is filed as cell-based. In a few lines: as §1
The mark [10] stands for this setting: ATCC27853, MHB, read-out: Minimum Inhibitory Concentration, P. aeruginosa ATCC 27853.
[11] abbreviates: ATCC19606, MHB, read-out: Minimum Inhibitory Concentration, A. baumannii ATCC 19606.
Where [12] appears, read: E. coli AG100 (wild-type parent), MHB, read-out: Minimum Inhibitory Concentration, E. coli AG100.
The mark [13] stands for this setting: E. coli 901C (hyper-permeable), MHB.

In brackets after ≈: the same amount, converted by molar mass. Like-named read-outs stand apart in the source and are kept apart here.

T1 sequence (G3XD46 whole entry): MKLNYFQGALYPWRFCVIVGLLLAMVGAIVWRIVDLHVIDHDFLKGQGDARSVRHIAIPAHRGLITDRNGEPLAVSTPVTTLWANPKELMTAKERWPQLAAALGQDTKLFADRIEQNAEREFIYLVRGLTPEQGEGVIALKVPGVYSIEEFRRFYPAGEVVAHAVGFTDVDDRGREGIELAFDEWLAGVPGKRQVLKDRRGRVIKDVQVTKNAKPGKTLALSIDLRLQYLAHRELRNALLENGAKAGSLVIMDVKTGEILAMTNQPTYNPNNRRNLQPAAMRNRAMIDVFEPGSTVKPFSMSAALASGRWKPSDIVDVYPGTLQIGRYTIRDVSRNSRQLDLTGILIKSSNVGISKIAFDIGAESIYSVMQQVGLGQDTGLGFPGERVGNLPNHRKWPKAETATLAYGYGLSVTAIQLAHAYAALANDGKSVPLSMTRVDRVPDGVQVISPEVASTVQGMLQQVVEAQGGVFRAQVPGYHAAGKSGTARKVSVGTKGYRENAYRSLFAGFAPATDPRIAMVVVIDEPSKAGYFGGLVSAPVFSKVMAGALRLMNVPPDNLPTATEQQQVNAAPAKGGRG

In the case of `CCN1CCN(C(=O)NC(C(=O)N[C@H]2Cc3cccc(C(=O)O)c3OB2O)c2ccc(O)c(NS(C)(=O)=O)c2)C(=O)C1=O` (stereo partly drawn) [Example 22, (3R)-3-(2-(4-ethyl-2,3-dioxopiperazine-1-carboxamido)-2-(4-hydroxy-3-(methylsulfonamido)phenyl)acetamido)-2-hydroxy-3,4-dihydro-2H-benzo[e][1,2]oxaborinine-8-carboxylic acid], the “P. aeruginosa PBP3 Potency” value in assay [1] is reported as “D (D represents a potency <10 μM)”. Also, the MIC was over 128 µg/mL in assay [2] (setting [10]); over 128 µg/mL in [3] (setting [11]); over 128 µg/mL in assay [4]; 32 to 64 µg/mL (≈ 51.8 to 104 µM) in assay [5] (setting [12]); 8 to 16 µg/mL (≈ 13 to 25.9 µM) in assay [6]; 32 to 64 µg/mL (≈ 51.8 to 104 µM) in [7]. Besides, the MIC in assay [8] is 2 to 4 µg/mL (≈ 3.24 to 6.48 µM); in assay [9] (setting [13]), under 0.25 µg/mL.
For the molecule `NCCN1CCN(C(=O)NC(C(=O)N[C@H]2Cc3ccc(F)c(C(=O)O)c3OB2O)c2nc(N)sc2F)C(=O)C1=O` (stereo partly drawn) [Example 24, (3R)-3-(2-(2-amino-5-fluorothiazol-4-yl)-2-(4-(2-aminoethyl)-2,3-dioxopiperazine-1-carboxamido)acetamido)-7-fluoro-2-hydroxy-3,4-dihydro-2H-benzo[e][1,2]oxaborinine-8-carboxylic acid], the “P. aeruginosa PBP3 Potency” value in assay [1] is “B (B represents a potency between 30 μM and 500 μM inclusive)”. Besides, the MIC in assay [2] (setting [10]) is over 128 µg/mL; in assay [3] (setting [11]), over 128 µg/mL; in assay [4], over 128 µg/mL; in assay [5] (setting [12]), 32 to 64 µg/mL (≈ 55 to 110 µM); in assay [6] it was 32 to 64 µg/mL (≈ 55 to 110 µM); in [7] it was 32 to 64 µg/mL (≈ 55 to 110 µM). In addition, the figures for the MIC in assay [8] and in assay [9] (setting [13]) were 8 to 16 µg/mL (≈ 13.8 to 27.5 µM) and 2 to 4 µg/mL (≈ 3.44 to 6.88 µM), respectively.
Take `CCN1CCN(C(=O)NC(C(=O)N[C@H]2Cc3cccc(C(=O)O)c3OB2O)c2ccc(O)c(N)c2)C(=O)C1=O` (stereo partly drawn) [Example 29, (3R)-3-(2-(3-amino-4-hydroxyphenyl)-2-(4-ethyl-2,3-dioxopiperazine-1-carboxamido)acetamido)-2-hydroxy-3,4-dihydro-2H-benzo[e][1,2]oxaborinine-8-carboxylic acid]: the “P. aeruginosa PBP3 Potency” value in assay [1] is reported as “D (D represents a potency <10 μM)”. In addition, the MIC is over 128 µg/mL in [2] (setting [10]); over 128 µg/mL in [3] (setting [11]); over 128 µg/mL in assay [4]; 32 to 64 µg/mL (≈ 59.3 to 119 µM) in assay [5] (setting [12]); 8 to 16 µg/mL (≈ 14.8 to 29.7 µM) in [6]; 32 to 64 µg/mL (≈ 59.3 to 119 µM) in [7]. Further, the values for the MIC in assay [8] and in [9] (setting [13]) were 2 to 4 µg/mL (≈ 3.71 to 7.42 µM) and 0.5 to 1 µg/mL (≈ 0.927 to 1.85 µM), respectively.
As for `CCN1CCN(C(=O)NC(C(=O)N[C@H]2Cc3cccc(C(=O)O)c3OB2O)c2ccc(O)c(NS(N)(=O)=O)c2)C(=O)C1=O` (stereo partly drawn) [Example 30, (3R)-3-(2-(4-ethyl-2,3-dioxopiperazine-1-carboxamido)-2-(4-hydroxy-3-(sulfamoylamino)phenyl)acetamido)-2-hydroxy-3,4-dihydro-2H-benzo[e][1,2]oxaborinine-8-carboxylic acid], the “P. aeruginosa PBP3 Potency” value in assay [1] was “D (D represents a potency <10 μM)”. Also, the MIC in assay [2] (setting [10]) is over 128 µg/mL; in [3] (setting [11]) it was over 128 µg/mL; in assay [4], over 128 µg/mL; in assay [5] (setting [12]) it was 32 to 64 µg/mL (≈ 51.7 to 103 µM); in assay [6] it was 8 to 16 µg/mL (≈ 12.9 to 25.9 µM); in assay [7], 32 to 64 µg/mL (≈ 51.7 to 103 µM). Also, the MIC lay in the range of 2 to 4 µg/mL (≈ 3.23 to 6.47 µM) in assay [8] and 0.5 to 1 µg/mL (≈ 0.809 to 1.62 µM) in [9] (setting [13]).
For `CCN1CCN(C(=O)NC(C(=O)N[C@H]2Cc3cccc(C(=O)O)c3OB2O)c2ccc(C(=O)O)c(F)c2)C(=O)C1=O` (stereo partly drawn) [Example 31, (3R)-3-(2-(4-carboxy-3-fluorophenyl)-2-(4-ethyl-2,3-dioxopiperazine-1-carboxamido)acetamido)-2-hydroxy-3,4-dihydro-2H-benzo[e][1,2]oxaborinine-8-carboxylic acid], in [1], the “P. aeruginosa PBP3 Potency” value is given as “D (D represents a potency <10 μM)”. Besides, the MIC was 32 to 64 µg/mL (≈ 56.1 to 112 µM) in assay [2] (setting [10]); over 128 µg/mL in assay [3] (setting [11]); over 128 µg/mL in [4]; 32 to 64 µg/mL (≈ 56.1 to 112 µM) in [5] (setting [12]); 8 to 16 µg/mL (≈ 14 to 28.1 µM) in [6]; 32 to 64 µg/mL (≈ 56.1 to 112 µM) in assay [7]. Also, the figures for the MIC in assay [8] and in assay [9] (setting [13]) were 2 to 4 µg/mL (≈ 3.51 to 7.01 µM) and under 0.25 µg/mL, respectively.
In the case of `N[C@@H](C(=O)N[C@H]1Cc2ccc(F)c(C(=O)O)c2OB1O)c1ccc(OS(=O)(=O)F)cc1` [Example 32, (R)-3-((R)-2-amino-2-(4-((fluorosulfonyl)oxy)phenyl)acetamido)-7-fluoro-2-hydroxy-3,4-dihydro-2H-benzo[e][1,2]oxaborinine-8-carboxylic acid], in assay [1], the “P. aeruginosa PBP3 Potency” value is reported as “A (A represents a potency of >500 μM)”. The MIC in assay [2] (ATCC27853, read-out: Minimum Inhibitory Concentration, P. aeruginosa ATCC 27853) is over 128 µg/mL; in assay [3] (ATCC19606, read-out: Minimum Inhibitory Concentration, A. baumannii ATCC 19606), over 128 µg/mL; in assay [4], over 128 µg/mL; in [5] (AG100, read-out: Minimum Inhibitory Concentration, E. coli AG100), over 128 µg/mL; in [6] it was over 128 µg/mL; in [7], over 128 µg/mL. Also, the MIC in [8] and in assay [9] (901C) was over 128 µg/mL each time.
Consider `NCCCN1CCN(C(=O)NC(C(=O)N[C@H]2Cc3cccc(C(=O)O)c3OB2O)c2ccc(C(=O)O)cc2)C(=O)C1=O` (stereo partly drawn) [Example 39, (3R)-3-(2-(4-(3-aminopropyl)-2,3-dioxopiperazine-1-carboxamido)-2-(4-carboxyphenyl)acetamido)-2-hydroxy-3,4-dihydro-2H-benzo[e][1,2]oxaborinine-8-carboxylic acid], for which the “P. aeruginosa PBP3 Potency” value in [1] is “D (D represents a potency <10 μM)”. Besides, the MIC in assay [2] (setting [10]) was 8 to 16 µg/mL (≈ 13.8 to 27.5 µM); in assay [3] (setting [11]), over 128 µg/mL; in assay [4], over 128 µg/mL; in assay [5] (setting [12]), 8 to 16 µg/mL (≈ 13.8 to 27.5 µM); in [6], 8 to 16 µg/mL (≈ 13.8 to 27.5 µM); in assay [7] it was 32 to 64 µg/mL (≈ 55 to 110 µM). Moreover, the MIC in [8] lay within 8 to 16 µg/mL (≈ 13.8 to 27.5 µM); in assay [9] (setting [13]), 0.5 to 1 µg/mL (≈ 0.86 to 1.72 µM).
As to `NS(=O)(=O)NC(C(=O)N[C@H]1Cc2ccc(F)c(C(=O)O)c2OB1O)c1ncc(O)cc1F` (stereo partly drawn) [Example 43, (3R)-7-fluoro-3-(2-(3-fluoro-5-hydroxypyridin-2-yl)-2-(sulfamoylamino)acetamido)-2-hydroxy-3,4-dihydro-2H-benzo[e][1,2]oxaborinine-8-carboxylic acid], in [1], the “P. aeruginosa PBP3 Potency” value is “C (C represents a potency between 10 and 30 μM)”. Also, the MIC in assay [2] (setting [10]), in [3] (setting [11]), in [4], in [5] (setting [12]), in assay [6] and in [7] was over 128 µg/mL in each case. The MIC in assay [8] and in assay [9] (setting [13]) was over 128 µg/mL in each case.
For the molecule `NS(=O)(=O)NC(C(=O)N[C@H]1Cc2cccc(C(=O)O)c2OB1O)c1ccc(C(=O)O)c(F)c1` (stereo partly drawn) [Example 44, (3R)-3-(2-(4-carboxy-3-fluorophenyl)-2-(sulfamoylamino)acetamido)-2-hydroxy-3,4-dihydro-2H-benzo[e][1,2]oxaborinine-8-carboxylic acid], the “P. aeruginosa PBP3 Potency” value in assay [1] is “C (C represents a potency between 10 and 30 μM)”. In addition, the MIC in assay [2] (setting [10]), in assay [3] (setting [11]), in assay [4], in [5] (setting [12]), in assay [6] and in [7] was over 128 µg/mL in each case. The MIC in [8] and in [9] (setting [13]) was over 128 µg/mL each time.
